Residues, ends and D or L forms follow the SMILES beside them. *: point of attachment. PhAc = O=C(Cc1ccccc1)*; Bz = O=C(c1ccccc1)*

Series [1] can be described thus: Solubility of the product obtained. It is filed as physicochemical. The source says:
The product obtained was insoluble in water and is soluble to the extent of at least 1% to 5% in organic solvents such as methanol. chloroform, ethyl acetate and dimethylformamide.

Another series has as its system prolactin. In words: Effect on adenohypophyseal hormone secretions: prolactin radioimmunoassay. The following applies: male rats, plasma 30 min later; for activity on prolactin levels: 32 mg/kg IP. It is filed as in vivo, rat. As to the method:
(§1) Male rats received 2 mg/kg, 8 mg/kg, or 32 mg/kg IP of product of example 1 in arabic gum (2.5%) and 32 mg/kg IP of products of examples 2 and 3. Rats were killed 30 min. later by decapitation and plasma samples were aliquoted and kept frozen (-20° C.) until assays. Before the experiments, the rats have been accustomed to handling to avoid any stress effect.
(§2) Hormones were assayed using radioimmunoassays for prolactin, GH and TSH.

Series [2] concerns mice of the NMRI strain. In words: Antagonism of sleep induced by barbiturates. Type of series: in vivo, mouse. The following applies: oral 2 and 8 mg/kg one hour before barbital 50 mg/kg i.p.; compared with a control group. As to the method:
A compound of the invention is administered orally at doses of 2, 8 and 32 mg.kg^-1 to mice of the NMRI strain one hour before the intraperitoneal administration of barbital at a dose of 50 mg/kg.

For a further series, the system named is TSH. In words: Effect on adenohypophyseal hormone secretions: TSH radioimmunoassay. The settings on record: male rats, plasma 30 min later; for activity on TSH levels: 32 mg/kg IP. It is filed as in vivo, rat. As to the method:
as §1, §2

Another series deals with mouse. As to the kind of experiment: Test of passive avoidance: amnesia induced by scopolamine. The settings on record: for activity in the scopolamine amnesia test: at 2, 8 and 32 mg/kg; for activity in the scopolamine amnesia test / dose at which activity is significant / active dose, scopolamine amnesia test: oral administration; for dose with significant/antagonistic effect on scopolamine amnesia: i.p. route 60 minutes before Assay 1. Type of series: in vivo. Here is the method:
The procedure described by Glick and Zimmerberg in Behavioural Biology, 1972, 7: 245-254 and by Lenegre et al in Pharmacol. Biochem. Behav., 29 (3) 1988 were used.
The mouse is introduced into the illuminated compartment of a two-compartment box. When it crosses into the darker component its paws receive electric shocks of 0.3 mA until it returns into the illuminated compartment (Assay 1).
When the mouse is returned to the box 24 hours later (Assay 2), it avoids going into the darker component. An i.p. injection of scopolamine (1 mg.kg^-1) 30 minutes before Assay 1 reduces the memory of this experience as is reflected in the delay of the reaction of the mouse before it crosses to the darker compartment in Assay 2. […]
Piracetam was used as reference substance.

Series [3] has as its system mice of the NMRI strain. In words: Test of passive avoidance: amnesia induced by diazepam. Type of series: in vivo, mouse. The settings on record: for dose with statistically significant effect / dose reducing diazepam amnesia: 60 minutes before Assay 1, piracetam by the i.p. route. Here is the method:
A volume of 0.25 ml/20 g of body weight of the compound of Example 1 (suspension in 5% gum arabic) is administered to mice of the NMRI strain or, in the case of the reference substance, an aqueous solution of piracetam or of diazepam (5% suspension in gum arabic) is administered. The control animals receive only injections of the vehicle (suspension of gum arabic). The test is carried out at indicated above for the induction of amnesia by the injection of scopolamine, with exception that this latter is replaced by diazepam. An injection of diazepam by the i.p. route 30 minutes before Assay 1 at a dose of 1 mg.kg^-1 reduces memory in a significant manner as is shown by the diminution of the reaction time in the mouse for crossing to the dark compartment during Assay 2.

Series [4] deals with male mice of the NMRI strain. In words: Irwin test. Type of series: in vivo, mouse. Here is the method: A volume of 0.25 ml/20 g of body weight of a suspension of the compound of the invention in 5% gum arabic is administered to male mice of the NMRI strain by the i.p. route. The control animals received only the 5% suspension of gum arabic. Changes in behaviour, neurotoxicity symptoms, the diameter of the pupil and the rectal temperature are recorded in the standardized observation schedule according to Irwin in Psychopharmacologia, 1968, 13, 222-257. These observations were made at 15, 30, 60, 120 and 180 minutes after injection and 24 hours later. The compounds of the invention were studied at doses of 1024, 512 and 256 mg.kg^-1.

The subject of another series is NMRI mice. In words: Potentiation of the effects of L-dopa. The settings on record: oral 8 and 32 mg/kg one hour before L-dopa 150 mg/kg i.p. Type of series: in vivo, mouse. As to the method: A compound of the invention is adiministered orally at doses of 2, 8 and 32 mg/kg to NMRI mice one hour before the intraperitoneal administration of 150 mg/kg of L-dopa.
The next series has as its system GH. As to the kind of experiment: Effect on adenohypophyseal hormone secretions: GH radioimmunoassay. Type of series: in vivo, rat. The settings on record: male rats; 32 mg/kg IP; plasma 30 min later. Here is the method:
as §1, §2

The mark [5] stands for this setting: i.p. 1024 mg.kg^-1, between 1 and 2 hours after administration.

As for `NC(=O)[C@@H]1CCCN1C(=O)[C@H](Cc1ccccc1)NC(=O)CNC(=O)C=Cc1ccccc1` [Example 1, cinnamoyl-glycyl-L-phenylalanyl-L-prolinamide], the solubility in water result in series [1] is “insoluble”. The prolactin levels result in the series on prolactin (2, 8 or 32 mg/kg IP, dose dependent) was “slightly increased”. For the same compound, the duration of sleep entry in the series on mice of the NMRI strain [2] is “significantly diminishes the duration of sleep”. Also, the TSH levels entry in the series on TSH (8 mg/kg IP) was “very slightly increased”. Moreover, in the series on mouse, the “activity in the scopolamine amnesia test” value is “active”; the “dose with significant/antagonistic effect on scopolamine amnesia” value is 1 mg/kg; the “dose at which activity is significant / active dose, scopolamine amnesia test” value is recorded as 2 mg/kg. Also, the “antagonism of the effects of scopolamine (Assay 2)” value in the series on mouse (i.p. 60 minutes before Assay 1, doses of 1, 4 and 16 mg/kg) is given as “antagonizes the effects of scopolamine”. For the same compound, the “dose with statistically significant effect / dose reducing diazepam amnesia” value in the series with mice of the NMRI strain [3] came out at 4 mg/kg. In addition, the “antagonism of the effect of diazepam (Assay 2)” value in the series on mice of the NMRI strain [3] (doses of 0.25, l and 4 mg.kg^-1, 60 minutes before Assay 1, diazepam 1 mg.kg^-1 i.p.) is on record as “antagonizes the effect of diazepam in a dose-dependent manner”. In [4] (i.p. 256 mg.kg^-1), the “Irwin observations versus control animals” value is on record as “no difference from the control animals”. Also, the “Irwin observations (hypothermia)” value in series [4] (i.p. 512 mg.kg^-1) is recorded as “only a slight hypothermia”. Besides, in [4] (i.p. 1024 mg.kg^-1), the hypothermia result was “hypothermia (2 mice/3)” and the ptosis result is on record as “moderate ptosis (3 mice/3)”. For the same compound, in series [4] (setting [5]), the excitation entry is recorded as “excitation (1 mouse/3)” and the sedation result is given as “slight sedation (1 mouse/3)”. The “behavioural changes with L-dopa” value in the series with NMRI mice was “induces behavioural changes in the treated animals such as rapid running and jumping”.
For “4-fluorocinnamoylglycyl-L-phenylalanine-L-prolinamide [Example 2]”, the “activity on prolactin levels” value in the series with prolactin is given as “no activity at all”. Besides, the “activity on GH levels” value in the series on GH is on record as “no activity at all”. The “activity on TSH levels” value in the series on TSH is given as “no activity at all”. In addition, in the series on mouse, the “activity in the scopolamine amnesia test” value is listed as “active” and the “dose at which activity is significant / active dose, scopolamine amnesia test” value came out at 2 mg/kg.
As for `NC(=O)[C@@H]1CCCN1C(=O)[C@H](Cc1ccccc1)NC(=O)CNC(=O)C=Cc1ccc2c(c1)OCO2` [Example 3, 3,4-methylenedioxycinnamoyl-glycyl-L-phenylalanyl-L-prolinamide], in the series with prolactin, the “activity on prolactin levels” value was “no activity at all”. Further, in the series with GH, the “activity on GH levels” value is listed as “no activity at all”. Besides, the “activity on TSH levels” value with TSH is “no activity at all”. In the series on mouse, the “activity in the scopolamine amnesia test” value was “active” and the “dose at which activity is significant / active dose, scopolamine amnesia test” value is recorded as 2 mg/kg.
Regarding `NC(=O)CN1CCCC1=O` [piracetam, reference compound], the “latent periods for crossing into the dark compartment or for escaping from it during Assay 1” value in the series on mouse (i.p. or oral route 60 mn before the assay, Assay 1) is “does not produce any effect”. For the same compound, in the series with mouse, the “dose with significant/antagonistic effect on scopolamine amnesia” value is listed as 512 mg/kg and the “dose at which activity is significant / active dose, scopolamine amnesia test” value was 2048 mg/kg. For the same compound, the “dose with statistically significant effect / dose reducing diazepam amnesia” value in the series on mice of the NMRI strain [3] was found to be 512 mg/kg.
`NC(=O)[C@@H]1CCCN1C(=O)[C@H](Cc1ccccc1)NC(=O)CNC(=O)Cc1ccccc1` [Example 7, phenylacetyl-glycyl-L-phenylalanyl-L-prolinamide] (PhAc-Gly-Phe-Pro-NH2): in the series with mouse, the “activity in the scopolamine amnesia test” value is “active” and the “dose at which activity is significant / active dose, scopolamine amnesia test” value is on record as 2 mg/kg.
Consider `NC(=O)[C@@H]1CCCN1C(=O)[C@H](Cc1ccccc1)NC(=O)CNC(=O)c1ccccc1` [Example 6, benzoyl-glycyl-L-phenylalanyl-L-prolinamide] (Bz-Gly-Phe-Pro-NH2), for which, in the series with mouse, the “activity in the scopolamine amnesia test” value was “active” and the “dose at which activity is significant / active dose, scopolamine amnesia test” value worked out at 2 mg/kg.

The values are drawn from US5212158A, “Derivatives of L-proline, their preparation and their biological uses” (Inorgan SA Recherche & Developpement Pharmaceutiques, CAS, priority 1987, dated 1993).
